Test results published in patent US20060154243A1 (priority 2003, published 2006).

Tests used:
Format in all cases: binding, human
[1] = system: serum 2 (individual 2)
[2] = system: serum 62 (individual 62)
[3] = system: serum 37 (individual 37)
[4] = system: serum SARS-yellow
[5] = system: control serum Blood-bank (commercial negative donor pooled serum)
[6] = system: serum 6 (individual 6)
[7] = system: serum 1a (individual 1, early serum)
[8] = system: serum 1b (individual 1, late serum)
[9] = system: serum SARS-green
[10] = system: control serum LUMC (pooled serum of ten healthy hospital workers)
[11] = system: sera SARS-green, SARS-yellow, 1a, 1b, 2, 6, 37, 62 and London
[12] = system: serum London

## FLKEQHCQKASTQRE
[1]
  Binding of serum 2 to linear peptides of Orf14 of SARS-CoV TOR2: 0.3
[2]
  Binding of serum 62 to linear peptides of Orf14 of SARS-CoV TOR2: 0.3
[3]
  Binding of serum 37 to linear peptides of Orf14 of SARS-CoV TOR2: 0.4
[4]
  Binding of serum SARS-yellow to linear peptides of Orf14 of SARS-CoV TOR2: 0.2
[5]
  Control Serum Blood-Bank Looped peptides: 0.9
  Control serum Blood-bank linear peptides: 0.4
[6]
  Binding of serum 6 to linear peptides of Orf14 of SARS-CoV TOR2: 0.2
[7]
  Binding of serum 1a to linear peptides of Orf14 of SARS-CoV TOR2: 0.3
[8]
  Binding of serum 1b to linear peptides of Orf14 of SARS-CoV TOR2: 0.3
[9]
  Binding of serum SARS-green to linear peptides of Orf14 of SARS-CoV TOR2: 0.1
[10]
  Control serum LUMC linear peptides: 0.3
  Control serum LUMC looped peptides: 1.1
[11]
  Recognition of the peptide by sera of individuals infected by SARS-CoV, form recognized: recognized in looped form
[12]
  Binding of serum London to linear peptides of Orf14 of SARS-CoV TOR2: 0.3

## HCQKASTQREAEAAV
[1]
  Binding of serum 2 to linear peptides of Orf14 of SARS-CoV TOR2: 0.9
[2]
  Binding of serum 62 to linear peptides of Orf14 of SARS-CoV TOR2: 0.7
[3]
  Binding of serum 37 to linear peptides of Orf14 of SARS-CoV TOR2: 0.7
[4]
  Binding of serum SARS-yellow to linear peptides of Orf14 of SARS-CoV TOR2: 0.6
[5]
  Control Serum Blood-Bank Looped peptides: 0.9
  Control serum Blood-bank linear peptides: 0.5
[6]
  Binding of serum 6 to linear peptides of Orf14 of SARS-CoV TOR2: 0.6
[7]
  Binding of serum 1a to linear peptides of Orf14 of SARS-CoV TOR2: 0.6
[8]
  Binding of serum 1b to linear peptides of Orf14 of SARS-CoV TOR2: 0.5
[9]
  Binding of serum SARS-green to linear peptides of Orf14 of SARS-CoV TOR2: 0.4
[10]
  Control serum LUMC linear peptides: 0.6
  Control serum LUMC looped peptides: 0.8
[11]
  Recognition of the peptide by sera of individuals infected by SARS-CoV, form recognized: recognized in looped form
[12]
  Binding of serum London to linear peptides of Orf14 of SARS-CoV TOR2: 0.7

## KASTQREAEAAVKPL
[1]
  Binding of serum 2 to linear peptides of Orf14 of SARS-CoV TOR2: 0.3
[2]
  Binding of serum 62 to linear peptides of Orf14 of SARS-CoV TOR2: 0.2
[3]
  Binding of serum 37 to linear peptides of Orf14 of SARS-CoV TOR2: 0.3
[4]
  Binding of serum SARS-yellow to linear peptides of Orf14 of SARS-CoV TOR2: 0.1
[5]
  Control Serum Blood-Bank Looped peptides: 0.6
  Control serum Blood-bank linear peptides: 0.3
[6]
  Binding of serum 6 to linear peptides of Orf14 of SARS-CoV TOR2: 0.3
[7]
  Binding of serum 1a to linear peptides of Orf14 of SARS-CoV TOR2: 0.3
[8]
  Binding of serum 1b to linear peptides of Orf14 of SARS-CoV TOR2: 0.3
[9]
  Binding of serum SARS-green to linear peptides of Orf14 of SARS-CoV TOR2: 0.1
[10]
  Control serum LUMC linear peptides: 0.3
  Control serum LUMC looped peptides: 0.6
[11]
  Recognition of the peptide by sera of individuals infected by SARS-CoV, form recognized: recognized in looped form
[12]
  Binding of serum London to linear peptides of Orf14 of SARS-CoV TOR2: 0.2

## KEQHCQKASTQREAE
[1]
  Binding of serum 2 to linear peptides of Orf14 of SARS-CoV TOR2: 0.4
[2]
  Binding of serum 62 to linear peptides of Orf14 of SARS-CoV TOR2: 0.2
[3]
  Binding of serum 37 to linear peptides of Orf14 of SARS-CoV TOR2: 0.4
[4]
  Binding of serum SARS-yellow to linear peptides of Orf14 of SARS-CoV TOR2: 0.2
[5]
  Control Serum Blood-Bank Looped peptides: 0.9
  Control serum Blood-bank linear peptides: 0.3
[6]
  Binding of serum 6 to linear peptides of Orf14 of SARS-CoV TOR2: 0.3
[7]
  Binding of serum 1a to linear peptides of Orf14 of SARS-CoV TOR2: 0.4
[8]
  Binding of serum 1b to linear peptides of Orf14 of SARS-CoV TOR2: 0.3
[9]
  Binding of serum SARS-green to linear peptides of Orf14 of SARS-CoV TOR2: 0.1
[10]
  Control serum LUMC linear peptides: 0.3
  Control serum LUMC looped peptides: 0.8
[11]
  Recognition of the peptide by sera of individuals infected by SARS-CoV, form recognized: recognized in looped form
[12]
  Binding of serum London to linear peptides of Orf14 of SARS-CoV TOR2: 0.3

## LKEQHCQKASTQREA
[1]
  Binding of serum 2 to linear peptides of Orf14 of SARS-CoV TOR2: 0.4
[2]
  Binding of serum 62 to linear peptides of Orf14 of SARS-CoV TOR2: 0.2
[3]
  Binding of serum 37 to linear peptides of Orf14 of SARS-CoV TOR2: 0.4
[4]
  Binding of serum SARS-yellow to linear peptides of Orf14 of SARS-CoV TOR2: 0.3
[5]
  Control Serum Blood-Bank Looped peptides: 0.9
  Control serum Blood-bank linear peptides: 0.3
[6]
  Binding of serum 6 to linear peptides of Orf14 of SARS-CoV TOR2: 0.2
[7]
  Binding of serum 1a to linear peptides of Orf14 of SARS-CoV TOR2: 0.3
[8]
  Binding of serum 1b to linear peptides of Orf14 of SARS-CoV TOR2: 0.2
[9]
  Binding of serum SARS-green to linear peptides of Orf14 of SARS-CoV TOR2: 0.1
[10]
  Control serum LUMC linear peptides: 0.3
  Control serum LUMC looped peptides: 0.9
[11]
  Recognition of the peptide by sera of individuals infected by SARS-CoV, form recognized: recognized in looped form
[12]
  Binding of serum London to linear peptides of Orf14 of SARS-CoV TOR2: 0.3

## LPPCYNFLKEQHCQK
[1]
  Binding of serum 2 to linear peptides of Orf14 of SARS-CoV TOR2: 0.2
[2]
  Binding of serum 62 to linear peptides of Orf14 of SARS-CoV TOR2: 0.2
[3]
  Binding of serum 37 to linear peptides of Orf14 of SARS-CoV TOR2: 0.3
[4]
  Binding of serum SARS-yellow to linear peptides of Orf14 of SARS-CoV TOR2: 0.0
[5]
  Control Serum Blood-Bank Looped peptides: 0.9
  Control serum Blood-bank linear peptides: 0.2
[6]
  Binding of serum 6 to linear peptides of Orf14 of SARS-CoV TOR2: 0.2
[7]
  Binding of serum 1a to linear peptides of Orf14 of SARS-CoV TOR2: 0.3
[8]
  Binding of serum 1b to linear peptides of Orf14 of SARS-CoV TOR2: 0.2
[9]
  Binding of serum SARS-green to linear peptides of Orf14 of SARS-CoV TOR2: 0.0
[10]
  Control serum LUMC linear peptides: 0.2
  Control serum LUMC looped peptides: 0.6
[11]
  Recognition of the peptide by sera of individuals infected by SARS-CoV, form recognized: recognized in looped form
[12]
  Binding of serum London to linear peptides of Orf14 of SARS-CoV TOR2: 0.1

## NFLKEQHCQKASTQR
[1]
  Binding of serum 2 to linear peptides of Orf14 of SARS-CoV TOR2: 0.4
[2]
  Binding of serum 62 to linear peptides of Orf14 of SARS-CoV TOR2: 0.3
[3]
  Binding of serum 37 to linear peptides of Orf14 of SARS-CoV TOR2: 0.5
[4]
  Binding of serum SARS-yellow to linear peptides of Orf14 of SARS-CoV TOR2: 0.3
[5]
  Control Serum Blood-Bank Looped peptides: 0.6
  Control serum Blood-bank linear peptides: 0.5
[6]
  Binding of serum 6 to linear peptides of Orf14 of SARS-CoV TOR2: 0.4
[7]
  Binding of serum 1a to linear peptides of Orf14 of SARS-CoV TOR2: 0.4
[8]
  Binding of serum 1b to linear peptides of Orf14 of SARS-CoV TOR2: 0.3
[9]
  Binding of serum SARS-green to linear peptides of Orf14 of SARS-CoV TOR2: 0.3
[10]
  Control serum LUMC linear peptides: 0.7
  Control serum LUMC looped peptides: 0.7
[11]
  Recognition of the peptide by sera of individuals infected by SARS-CoV, form recognized: recognized in looped form
[12]
  Binding of serum London to linear peptides of Orf14 of SARS-CoV TOR2: 0.4

## PCYNFLKEQHCQKAS
[1]
  Binding of serum 2 to linear peptides of Orf14 of SARS-CoV TOR2: 0.1
[2]
  Binding of serum 62 to linear peptides of Orf14 of SARS-CoV TOR2: 0.1
[3]
  Binding of serum 37 to linear peptides of Orf14 of SARS-CoV TOR2: 0.4
[4]
  Binding of serum SARS-yellow to linear peptides of Orf14 of SARS-CoV TOR2: 0.1
[5]
  Control Serum Blood-Bank Looped peptides: 0.7
  Control serum Blood-bank linear peptides: 0.0
[6]
  Binding of serum 6 to linear peptides of Orf14 of SARS-CoV TOR2: 0.3
[7]
  Binding of serum 1a to linear peptides of Orf14 of SARS-CoV TOR2: 0.3
[8]
  Binding of serum 1b to linear peptides of Orf14 of SARS-CoV TOR2: 0.2
[9]
  Binding of serum SARS-green to linear peptides of Orf14 of SARS-CoV TOR2: 0.1
[10]
  Control serum LUMC linear peptides: 0.1
  Control serum LUMC looped peptides: 0.5
[11]
  Recognition of the peptide by sera of individuals infected by SARS-CoV, form recognized: recognized in looped form
[12]
  Binding of serum London to linear peptides of Orf14 of SARS-CoV TOR2: 0.2
